From ChEMBL document CHEMBL1201861, “Genomics of Drug Sensitity in Cancer screening data, Wellcome Trust Sanger Institute”
pIC50: −log10 of the molar value.

Key:
Assay in all cases: cells
[1] = tested on: NCI-H1299; type: functional, cell-based; conditions: Homo sapiens;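 also: growth inhibition of human NCI-H1299 cells, read out by a cell viability assay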
Description: SANGER: Inhibition of human NCI-H1299 cell growth in a cell viability assay.

[2] = tested on: DSH1; type: functional, cell-based; conditions: Homo sapiens;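 also: growth inhibition of human DSH1 cells, measured with a cell viability readout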
Description: SANGER: Inhibition of human DSH1 cell growth in a cell viability assay.

[3] = tested on: CCRF-CEM; type: functional, cell-based, Homo sapiens; conditions: Homo sapiens, CCRF-CEM;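 also: inhibition of CCRF-CEM cell growth, measured by a cell viability assay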
Description: SANGER: Inhibition of human CCRF-CEM cell growth in a cell viability assay.

[4] = tested on: RPMI-8226; type: functional, cell-based, Homo sapiens; conditions: Homo sapiens, RPMI-8226
Description: SANGER: Inhibition of human RPMI-8226 cell growth in a cell viability assay.

[5] = tested on: SW982; type: functional, cell-based; conditions: Homo sapiens;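 also: growth inhibition of SW982 cells, read out with a cell viability assay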
Description: SANGER: Inhibition of human SW982 cell growth in a cell viability assay.

[6] = tested on: NB69; type: functional, cell-based, Homo sapiens; conditions: Homo sapiens, NB69;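 also: growth inhibition of NB69 cells, determined by a cell viability assay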
Description: SANGER: Inhibition of human NB69 cell growth in a cell viability assay.

[7] = tested on: NCI-H69; type: functional, cell-based, Homo sapiens; conditions: Homo sapiens, NCI-H69;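 also: growth inhibition of the cell line, read out with a cell viability assay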
Description: SANGER: Inhibition of human NCI-H69 cell growth in a cell viability assay.

[8] = tested on: 8-MG-BA; type: functional, cell-based, Homo sapiens; conditions: Homo sapiens, 8-MG-BA;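 also: growth inhibition of 8-MG-BA cells, read out with a cell viability assay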
Description: SANGER: Inhibition of human 8-MG-BA cell growth in a cell viability assay.

[9] = tested on: NCI-H1355; type: functional, cell-based, Homo sapiens; conditions: Homo sapiens, NCI-H1355;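 also: growth inhibition of human NCI-H1355 cells, read out by a cell viability assay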
Description: SANGER: Inhibition of human NCI-H1355 cell growth in a cell viability assay.

[10] = tested on: COLO-320-HSR; type: functional, cell-based, Homo sapiens; conditions: Homo sapiens, COLO-320-HSR;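 also: growth inhibition of COLO-320-HSR cells, determined with a cell viability assay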
Description: SANGER: Inhibition of human COLO-320-HSR cell growth in a cell viability assay.

[11] = tested on: ES1; type: functional, cell-based, Homo sapiens; conditions: Homo sapiens, ES1;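 also: growth inhibition of ES1 cells, read out with a cell viability assay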
Description: SANGER: Inhibition of human ES1 cell growth in a cell viability assay.

[12] = tested on: AM-38; type: functional, cell-based, Homo sapiens; conditions: Homo sapiens, AM-38;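 also: growth inhibition of AM-38 cells of human origin, read out by a cell viability assay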
Description: SANGER: Inhibition of human AM-38 cell growth in a cell viability assay.

[13] = tested on: LU-139; type: functional, cell-based, Homo sapiens; conditions: Homo sapiens, LU-139
Description: SANGER: Inhibition of human LU-139 cell growth in a cell viability assay.

[14] = tested on: SW 962; type: functional, cell-based, Homo sapiens; conditions: Homo sapiens, SW 962;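 also: growth inhibition of human SW962 cells, read out by a cell viability assay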
Description: SANGER: Inhibition of human SW962 cell growth in a cell viability assay.

[15] = tested on: RH-1; type: functional, cell-based, Homo sapiens; conditions: Homo sapiens, RH-1;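 also: growth inhibition of human RH-1 cells, read out with a cell viability assay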
Description: SANGER: Inhibition of human RH-1 cell growth in a cell viability assay.

[16] = tested on: NCI-H1648; type: functional, cell-based, Homo sapiens; conditions: Homo sapiens, NCI-H1648;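 also: cell viability assay measuring inhibition of NCI-H1648 cell growth, from the Sanger screening data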
Description: SANGER: Inhibition of human NCI-H1648 cell growth in a cell viability assay.

[17] = tested on: NMC-G1; type: functional, cell-based, Homo sapiens; conditions: Homo sapiens, NMC-G1;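 also: growth inhibition of the NMC-G1 cell line, measured with a cell viability read-out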
Description: SANGER: Inhibition of human NMC-G1 cell growth in a cell viability assay.

[18] = tested on: OCUB-M; type: functional, cell-based; conditions: Homo sapiens;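 also: growth inhibition of the cancer cell line, read out through a cell viability assay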
Description: SANGER: Inhibition of human OCUB-M cell growth in a cell viability assay.

[19] = tested on: SHP77; type: functional, cell-based, Homo sapiens, SHP-77; conditions: Homo sapiens, SHP77;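 also: growth inhibition of human SHP-77 cells measured by a cell viability assay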
Description: SANGER: Inhibition of human SHP-77 cell growth in a cell viability assay.

[20] = tested on: KGN; type: functional, cell-based, Homo sapiens; conditions: Homo sapiens, KGN;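 also: growth inhibition of KGN cells, read out with a cell viability assay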
Description: SANGER: Inhibition of human KGN cell growth in a cell viability assay.

[21] = tested on: SF-126; type: functional, cell-based, Homo sapiens; conditions: Homo sapiens, SF-126;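 also: growth inhibition of human SF126 cells, read out with a cell viability assay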
Description: SANGER: Inhibition of human SF126 cell growth in a cell viability assay.

[22] = tested on: A3-KAW; type: functional, cell-based, Homo sapiens; conditions: Homo sapiens, A3-KAW;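 also: growth inhibition of human A3-KAW cells, read out with a cell viability assay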
Description: SANGER: Inhibition of human A3-KAW cell growth in a cell viability assay.

[23] = tested on: D-247MG; type: functional, cell-based; conditions: Homo sapiens
Description: SANGER: Inhibition of human D-247MG cell growth in a cell viability assay.

[24] = tested on: MV4-11; type: functional, cell-based, Homo sapiens, MV-4-11; conditions: Homo sapiens, MV4-11;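 also: cell viability readout measuring growth inhibition of human MV-4-11 cells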
Description: SANGER: Inhibition of human MV-4-11 cell growth in a cell viability assay.

[25] = tested on: JAR; type: functional, cell-based, Homo sapiens; conditions: Homo sapiens, JAR;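 also: growth inhibition of human JAR cells determined with a cell viability assay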
Description: SANGER: Inhibition of human JAR cell growth in a cell viability assay.

[26] = tested on: SK-N-DZ; type: functional, cell-based, Homo sapiens; conditions: Homo sapiens, SK-N-DZ; read-out: IC50;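 also: growth inhibition of the cancer cell line, read out through a viability assay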
Description: SANGER: Inhibition of human SK-N-DZ cell growth in a cell viability assay.

[27] = tested on: SNU-C2B; type: functional, cell-based; conditions: Homo sapiens;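 also: cell viability readout used to measure compound-driven suppression of SNU-C2B cell proliferation, IC50 marking half-maximal growth inhibition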
Description: SANGER: Inhibition of human SNU-C2B cell growth in a cell viability assay.

[28] = tested on: TE-8; type: functional, cell-based, Homo sapiens; conditions: Homo sapiens, TE-8;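 also: growth inhibition of TE-8 cells, measured with a cell viability readout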
Description: SANGER: Inhibition of human TE-8 cell growth in a cell viability assay.

[29] = tested on: EOL1; type: functional, cell-based, Homo sapiens; conditions: Homo sapiens, EOL1;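 also: growth inhibition of EoL-1 cells, read out by a cell viability assay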
Description: SANGER: Inhibition of human EoL-1-cell cell growth in a cell viability assay.

[30] = tested on: NTERA-2-cl-D1; type: functional, cell-based, Homo sapiens; conditions: Homo sapiens, NTERA-2-cl-D1;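 also: inhibition of cell growth, measured with a cell viability assay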
Description: SANGER: Inhibition of human NTERA-S-cl-D1 cell growth in a cell viability assay.

[31] = tested on: HCE-4; type: functional, cell-based; conditions: Homo sapiens;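 also: cell viability assay measuring inhibition of growth in the human HCE-4 cell line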
Description: SANGER: Inhibition of human HCE-4 cell growth in a cell viability assay.

[32] = tested on: A388; type: functional, cell-based; conditions: Homo sapiens;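 also: growth inhibition of human A388 cells, read out with a cell viability assay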
Description: SANGER: Inhibition of human A388 cell growth in a cell viability assay.

[33] = tested on: LS-1034; type: functional, cell-based, Homo sapiens; conditions: Homo sapiens, LS-1034
Description: SANGER: Inhibition of human LS-1034 cell growth in a cell viability assay.

[34] = tested on: MZ1-PC; type: functional, cell-based, Homo sapiens; conditions: Homo sapiens, MZ1-PC;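 also: cell viability assay measuring growth inhibition of human MZ1-PC cells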
Description: SANGER: Inhibition of human MZ1-PC cell growth in a cell viability assay.

[35] = tested on: NB13; type: functional, cell-based, Homo sapiens; conditions: Homo sapiens, NB13;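 also: cell viability readout measuring growth inhibition of human NB13 cells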
Description: SANGER: Inhibition of human NB13 cell growth in a cell viability assay.

[36] = tested on: HEL; type: functional, cell-based, Homo sapiens; conditions: Homo sapiens, HEL;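 also: growth inhibition of HEL cells, read out with a cell viability assay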
Description: SANGER: Inhibition of human HEL cell growth in a cell viability assay.

[37] = tested on: D283 Med; type: functional, cell-based, Homo sapiens; conditions: Homo sapiens, D283 Med
Description: SANGER: Inhibition of human D-283MED cell growth in a cell viability assay.

[38] = tested on: SK-MEL-1; type: functional, cell-based, Homo sapiens; conditions: Homo sapiens, SK-MEL-1;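 also: growth inhibition of human SK-MEL-1 cells, read out by a cell viability assay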
Description: SANGER: Inhibition of human SK-MEL-1 cell growth in a cell viability assay.

[39] = tested on: TE-9; type: functional, cell-based, Homo sapiens; conditions: Homo sapiens, TE-9;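 also: cell growth inhibition, measured with a cell viability readout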
Description: SANGER: Inhibition of human TE-9 cell growth in a cell viability assay.

[40] = tested on: LB2518-MEL; type: functional, cell-based; conditions: Homo sapiens;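 also: growth inhibition of human LB2518-MEL cells, measured with a cell viability assay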
Description: SANGER: Inhibition of human LB2518-MEL cell growth in a cell viability assay.

[41] = tested on: NOMO-1; type: functional, cell-based, Homo sapiens; conditions: Homo sapiens, NOMO-1;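 also: growth inhibition of human NOMO-1 cells measured by a cell viability assay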
Description: SANGER: Inhibition of human NOMO-1 cell growth in a cell viability assay.

[42] = tested on: RPMI-8866; type: functional, cell-based, Homo sapiens; conditions: Homo sapiens, RPMI-8866
Description: SANGER: Inhibition of human RPMI-8866 cell growth in a cell viability assay.

[43] = tested on: BE-13; type: functional, cell-based, Homo sapiens; conditions: Homo sapiens, BE-13;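 also: growth inhibition of human BE-13 cells, measured with a cell viability assay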
Description: SANGER: Inhibition of human BE-13 cell growth in a cell viability assay.

[44] = tested on: JVM-3; type: functional, cell-based, Homo sapiens; conditions: Homo sapiens, JVM-3;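 also: growth inhibition of human JVM-3 cells, read out with a cell viability assay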
Description: SANGER: Inhibition of human JVM-3 cell growth in a cell viability assay.

[45] = tested on: MS-1; type: functional, cell-based, Homo sapiens; conditions: Homo sapiens, MS-1;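 also: growth inhibition of MS-1 cells, read out by cell viability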
Description: SANGER: Inhibition of human MS-1 cell growth in a cell viability assay.

[46] = tested on: SK-N-FI; type: functional, cell-based, Homo sapiens; conditions: Homo sapiens, SK-N-FI;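 also: cell viability assay measuring growth inhibition of human SK-N-FI cells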
Description: SANGER: Inhibition of human SK-N-FI cell growth in a cell viability assay.

[47] = tested on: BT-474; type: functional, cell-based, Homo sapiens; conditions: Homo sapiens, BT-474
Description: SANGER: Inhibition of human BT-474 cell growth in a cell viability assay.

[48] = tested on: NEC8; type: functional, cell-based, Homo sapiens; conditions: Homo sapiens, NEC8;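 also: growth inhibition of human NEC8 cells, read out by a cell viability assay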
Description: SANGER: Inhibition of human NEC8 cell growth in a cell viability assay.

[49] = tested on: TGW; type: functional, cell-based, Homo sapiens; conditions: Homo sapiens, TGW;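 also: growth inhibition of human TGW cells, read out with a cell viability assay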
Description: SANGER: Inhibition of human TGW cell growth in a cell viability assay.

O=C1NC(=O)c2c1c(-c1ccccc1Cl)cc1[nH]c3ccc(O)cc3c21
pIC50 [1]: < 5.70
pIC50 [2]: < 5.70
pIC50 [3]: < 5.70
pIC50 [4]: < 5.70
pIC50 [5]: < 5.70
pIC50 [6]: < 5.70
pIC50 [7]: < 5.70
pIC50 [8]: 5.81
pIC50 [9]: < 5.70
pIC50 [10]: 5.74
pIC50 [11]: < 5.70
pIC50 [12]: < 5.70
pIC50 [13]: < 5.70
pIC50 [14]: < 5.70
pIC50 [15]: < 5.70
pIC50 [16]: < 5.70
pIC50 [17]: < 5.70
pIC50 [18]: < 5.70
pIC50 [19]: < 5.70
pIC50 [20]: 5.77
pIC50 [21]: < 5.70
pIC50 [22]: 6.29
pIC50 [23]: < 5.70
pIC50 [24]: 6.09
pIC50 [25]: < 5.70
pIC50 [26]: < 5.70
pIC50 [27]: < 5.70
pIC50 [28]: < 5.70
pIC50 [29]: < 5.70
pIC50 [30]: < 5.70
pIC50 [31]: < 5.70
pIC50 [32]: < 5.70
pIC50 [33]: < 5.70
pIC50 [34]: < 5.70
pIC50 [35]: 6.02
pIC50 [36]: 5.92
pIC50 [37]: < 5.70
pIC50 [38]: < 5.70
pIC50 [39]: < 5.70
pIC50 [40]: < 5.70
pIC50 [41]: < 5.70
pIC50 [42]: < 5.70
pIC50 [43]: < 5.70
pIC50 [44]: 5.84
pIC50 [45]: 6.11
pIC50 [46]: < 5.70
pIC50 [47]: < 5.70

O=C(NCCCNc1nc(Nc2cccc(NC(=O)N3CCCC3)c2)ncc1I)c1cccs1 [BX-795]
pIC50 [1]: < 5.30
pIC50 [2]: < 5.30
pIC50 [3]: < 5.30
pIC50 [4]: < 5.30
pIC50 [5]: 6.02
pIC50 [6]: 5.94
pIC50 [8]: 5.71
pIC50 [9]: < 5.30
pIC50 [10]: < 5.30
pIC50 [11]: 5.76
pIC50 [12]: < 5.30
pIC50 [48]: < 5.30
pIC50 [14]: 5.63
pIC50 [15]: 5.77
pIC50 [16]: < 5.30
pIC50 [17]: < 5.30
pIC50 [18]: < 5.30
pIC50 [19]: < 5.30
pIC50 [20]: 5.65
pIC50 [21]: 5.61
pIC50 [22]: 6.14
pIC50 [23]: 5.49
pIC50 [24]: 7.43
pIC50 [25]: 5.46
pIC50 [26]: < 5.30
pIC50 [27]: < 5.30
pIC50 [28]: 5.45
pIC50 [30]: 5.97
pIC50 [31]: < 5.30
pIC50 [32]: < 5.30
pIC50 [33]: < 5.30
pIC50 [49]: 5.34
pIC50 [34]: < 5.30
pIC50 [35]: 5.40
pIC50 [36]: < 5.30
pIC50 [37]: 5.98
pIC50 [38]: < 5.30
pIC50 [39]: < 5.30
pIC50 [40]: < 5.30
pIC50 [41]: < 5.30
pIC50 [42]: < 5.30
pIC50 [43]: 6.15
pIC50 [44]: 5.73
pIC50 [45]: < 5.30
pIC50 [46]: < 5.30
pIC50 [47]: < 5.30

CS(=O)(=O)N1CCN(Cc2cc3nc(-c4cccc5[nH]ncc45)nc(N4CCOCC4)c3s2)CC1 [PICTILISIB]
pIC50 [1]: < 5.40
pIC50 [2]: < 5.40
pIC50 [3]: < 5.40
pIC50 [4]: < 5.40
pIC50 [5]: < 5.40
pIC50 [6]: 6.61
pIC50 [8]: < 5.40
pIC50 [9]: < 5.40
pIC50 [10]: < 5.40
pIC50 [11]: 5.65
pIC50 [12]: < 5.40
pIC50 [48]: 6.18
pIC50 [14]: 5.43
pIC50 [15]: < 5.40
pIC50 [16]: 6.00
pIC50 [17]: < 5.40
pIC50 [18]: < 5.40
pIC50 [19]: < 5.40
pIC50 [20]: < 5.40
pIC50 [21]: 5.64
pIC50 [22]: < 5.40
pIC50 [23]: < 5.40
pIC50 [24]: 6.14
pIC50 [25]: < 5.40
pIC50 [26]: < 5.40
pIC50 [27]: < 5.40
pIC50 [28]: 5.46
pIC50 [31]: < 5.40
pIC50 [32]: < 5.40
pIC50 [33]: < 5.40
pIC50 [49]: < 5.40
pIC50 [34]: < 5.40
pIC50 [35]: < 5.40
pIC50 [36]: < 5.40
pIC50 [37]: 5.63
pIC50 [38]: 5.88
pIC50 [39]: < 5.40
pIC50 [40]: < 5.40
pIC50 [41]: < 5.40
pIC50 [42]: < 5.40
pIC50 [43]: < 5.40
pIC50 [44]: 5.78
pIC50 [45]: < 5.40
pIC50 [46]: < 5.40
pIC50 [47]: < 5.40
